How the values were obtained:
Conditions in all cases: 72 h
BV-173 [1] = experiment: cell viability (% survival relative to DMSO control, bortezomib = 0%); higher = less cytotoxic
Summary of the method: (§1)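 Fifteen myeloid leukaemia cell lines were exposed to compounds at 1, 10, 100, 1000 or 10000 nM in 384-well plates for 72 h at 37 °C and 5% CO2. Viability was read by CellTiter-Glo luminescence and normalised, with vehicle as 100% and a 10 µM positive control as 0%. Values are percent survival averaged over duplicates.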

MOLM-13 [2] = experiment: as above
Summary of the method: as §1

KG-1 [3] = experiment: as above
Summary of the method: as §1

HL-60 [4] = experiment: as above
Summary of the method: as §1

Mono-Mac-6 [5] = experiment: as above
Summary of the method: as §1

K-562 [6] = experiment: as above
Summary of the method: as §1

KCL-22 [7] = experiment: as above
Summary of the method: as §1

ML-2 [8] = experiment: as above
Summary of the method: as §1

HEL [9] = experiment: as above
Summary of the method: as §1

NOMO-1 [10] = experiment: as above
Summary of the method: as §1

MV4-11 [11] = experiment: as above
Summary of the method: as §1

SHI-1 [12] = experiment: as above
Summary of the method: as §1

THP-1 [13] = experiment: as above
Summary of the method: as §1

KU-812 [14] = experiment: as above
Summary of the method: as §1

HL-60 [15] = experiment: area under dose-response curve (viability, 1 nM-10 uM) (fraction (0-1)); higher = more sensitive
Summary of the method: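 HL-60 cells in RPMI 1640 with 10% FBS were rescreened against the full library on 384-well plates at five tenfold concentrations, 1–10,000 nM, in duplicate. Each screen was run with DMSO or 100 nM of one of three metabolic inhibitors, for 72 h at 37 °C, 5% CO2. Viability was read by CellTiter-Glo and normalised to DMSO and 10 μM proteasome-inhibitor wells. Where given, area under the curve came from four-parameter log-logistic fits (drc, PharmacoGx).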

BV-173 [16] = test system: BV-173
Summary of the method: (§2)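 In 384-well plates holding acoustically pre-printed compounds at five tenfold doses from 1 to 10,000 nM, in duplicate, fifteen myeloid leukaemia cell lines were grown in RPMI 1640 for 72 h at 37 °C with 5% CO2. Luminescent ATP viability was scaled between vehicle and a positive control at 10 µM. The IC50 was then taken from log-logistic dose–response fits with four parameters.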

MOLM-13 [17] = test system: MOLM-13
Summary of the method: as §2

KG-1 [18] = test system: KG-1
Summary of the method: as §2

HL-60 [19] = test system: HL-60
Summary of the method: as §2

Mono-Mac-6 [20] = test system: Mono-Mac-6
Summary of the method: as §2

K-562 [21] = test system: K-562
Summary of the method: as §2

KCL-22 [22] = test system: KCL-22
Summary of the method: as §2

ML-2 [23] = test system: ML-2
Summary of the method: as §2

HEL [24] = test system: HEL
Summary of the method: as §2

LAMA-84 = test system: LAMA-84
Summary of the method: as §2

NOMO-1 [25] = test system: NOMO-1
Summary of the method: as §2

MV4-11 [26] = test system: MV4-11
Summary of the method: as §2

SHI-1 [27] = test system: SHI-1
Summary of the method: as §2

THP-1 [28] = test system: THP-1
Summary of the method: as §2

KU-812 [29] = test system: KU-812
Summary of the method: as §2

COc1ccc(S(=O)(=O)N2CCN(S(=O)(=O)c3ccc4c(c3)OCCO4)CC2)cc1 [BML283]
Conditions | area under dose-response curve, co-treatment: AZD3965 100 nM | area under dose-response curve, co-treatment: DMSO vehicle | area under dose-response curve, co-treatment: GSK2194069 100 nM | area under dose-response curve, co-treatment: pictilisib 100 nM | cell viability, 1 nM [%] | cell viability, 10 nM [%] | cell viability, 100 nM [%] | cell viability, 1000 nM [%] | cell viability, 10000 nM [%]
BV-173 [1] | – | – | – | – | 89.9 | 85.8 | 97.5 | 91.7 | 112
HEL [9] | – | – | – | – | 107 | 88.3 | 96.7 | 90.8 | 101
HL-60 [4] | – | – | – | – | 104 | 97.4 | 85.2 | 120 | 99.9
HL-60 [15] | < 0.0301 | < 0.0301 | < 0.0301 | 0.0571 | – | – | – | – | –
K-562 [6] | – | – | – | – | 107 | 95.2 | 97.7 | 92.5 | 98.6
KCL-22 [7] | – | – | – | – | 106 | 93.3 | 91.1 | 98.1 | 91.2
KG-1 [3] | – | – | – | – | 92.7 | 105 | 99 | 109 | 105
KU-812 [14] | – | – | – | – | 90.3 | 99.5 | 103 | 108 | 96.5
ML-2 [8] | – | – | – | – | 102 | 98.6 | 105 | 106 | 102
MOLM-13 [2] | – | – | – | – | 96.4 | 81.7 | 100 | 113 | 97.8
MV4-11 [11] | – | – | – | – | 103 | 93.6 | 89 | 94.1 | 101
Mono-Mac-6 [5] | – | – | – | – | 103 | 101 | 99.8 | 97.6 | 98.6
NOMO-1 [10] | – | – | – | – | 98 | 95.1 | 94.9 | 102 | 99.7
SHI-1 [12] | – | – | – | – | 110 | 94.8 | 96.9 | 96.3 | 103
THP-1 [13] | – | – | – | – | 98.5 | 103 | 99.3 | 98.9 | 103

Conditions | IC50 (cell viability) [µM]
BV-173 [16] | > 10
HEL [24] | > 10
HL-60 [19] | > 10
K-562 [21] | > 10
KCL-22 [22] | > 10
KG-1 [18] | > 10
KU-812 [29] | > 10
LAMA-84 | > 10
ML-2 [23] | > 10
MOLM-13 [17] | > 10
MV4-11 [26] | > 10
Mono-Mac-6 [20] | > 10
NOMO-1 [25] | > 10
SHI-1 [27] | > 10
THP-1 [28] | > 10
